The source made the active and inactive calls. Rule as the data show it, for most assays here: actives have a measured Kd and inactives only a lower limit.
Columns and labels:
[1] = biological target: cAMP-dependent protein kinase catalytic subunit beta (Homo sapiens, UniProt P22694)
[2] = biological target: RAC-gamma serine/threonine-protein kinase (Homo sapiens, UniProt Q9Y243)
[3] = biological target: Interleukin-1 receptor-associated kinase 1 (Homo sapiens, UniProt P51617)
[4] = biological target: Tyrosine-protein kinase HCK (Homo sapiens, UniProt P08631)
Tyrosine-protein kinase HCK, sequence (P08631 whole entry, the tested form may be a part): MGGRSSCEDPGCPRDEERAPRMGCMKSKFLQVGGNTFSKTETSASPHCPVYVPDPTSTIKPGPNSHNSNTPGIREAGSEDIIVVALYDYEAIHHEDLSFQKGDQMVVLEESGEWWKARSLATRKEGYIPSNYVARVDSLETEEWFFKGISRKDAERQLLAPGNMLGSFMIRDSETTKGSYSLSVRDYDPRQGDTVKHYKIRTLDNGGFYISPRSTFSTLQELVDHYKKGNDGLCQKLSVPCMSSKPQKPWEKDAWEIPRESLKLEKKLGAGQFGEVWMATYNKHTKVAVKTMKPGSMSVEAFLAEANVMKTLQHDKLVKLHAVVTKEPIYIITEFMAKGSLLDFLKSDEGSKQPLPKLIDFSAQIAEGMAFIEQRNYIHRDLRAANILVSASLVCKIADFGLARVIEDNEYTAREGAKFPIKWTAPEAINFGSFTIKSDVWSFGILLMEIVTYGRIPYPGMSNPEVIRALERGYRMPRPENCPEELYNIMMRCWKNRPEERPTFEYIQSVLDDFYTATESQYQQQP

[5] = biological target: Epithelial discoidin domain-containing receptor 1 (Homo sapiens, UniProt Q08345)
Epithelial discoidin domain-containing receptor 1, sequence (Q08345 whole entry, the tested form may be a part): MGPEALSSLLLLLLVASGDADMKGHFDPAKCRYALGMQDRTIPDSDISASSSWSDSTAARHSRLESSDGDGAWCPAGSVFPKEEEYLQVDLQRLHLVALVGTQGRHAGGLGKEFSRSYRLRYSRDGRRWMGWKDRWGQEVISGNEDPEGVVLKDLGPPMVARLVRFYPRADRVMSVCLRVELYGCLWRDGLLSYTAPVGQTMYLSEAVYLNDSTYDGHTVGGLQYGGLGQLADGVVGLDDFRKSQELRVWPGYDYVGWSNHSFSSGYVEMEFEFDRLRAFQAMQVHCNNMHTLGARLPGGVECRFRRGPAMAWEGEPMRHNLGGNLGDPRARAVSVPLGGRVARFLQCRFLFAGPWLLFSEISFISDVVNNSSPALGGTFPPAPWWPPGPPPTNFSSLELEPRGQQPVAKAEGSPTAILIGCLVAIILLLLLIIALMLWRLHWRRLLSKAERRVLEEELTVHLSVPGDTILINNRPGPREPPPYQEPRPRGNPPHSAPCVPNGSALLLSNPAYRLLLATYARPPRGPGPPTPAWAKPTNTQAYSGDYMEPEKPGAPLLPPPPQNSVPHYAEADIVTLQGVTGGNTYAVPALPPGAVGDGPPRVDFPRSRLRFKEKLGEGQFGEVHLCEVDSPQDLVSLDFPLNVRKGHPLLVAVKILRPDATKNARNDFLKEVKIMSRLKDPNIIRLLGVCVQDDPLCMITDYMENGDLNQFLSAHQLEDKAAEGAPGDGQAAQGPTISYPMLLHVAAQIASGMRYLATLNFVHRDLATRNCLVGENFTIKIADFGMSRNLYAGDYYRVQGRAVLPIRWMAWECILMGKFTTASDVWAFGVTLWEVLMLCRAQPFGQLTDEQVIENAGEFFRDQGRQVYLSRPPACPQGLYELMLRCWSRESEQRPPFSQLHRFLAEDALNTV

[6] = biological target: T1, Breakpoint cluster region protein (Homo sapiens, UniProt P11274)
T1 sequence (P11274 whole entry): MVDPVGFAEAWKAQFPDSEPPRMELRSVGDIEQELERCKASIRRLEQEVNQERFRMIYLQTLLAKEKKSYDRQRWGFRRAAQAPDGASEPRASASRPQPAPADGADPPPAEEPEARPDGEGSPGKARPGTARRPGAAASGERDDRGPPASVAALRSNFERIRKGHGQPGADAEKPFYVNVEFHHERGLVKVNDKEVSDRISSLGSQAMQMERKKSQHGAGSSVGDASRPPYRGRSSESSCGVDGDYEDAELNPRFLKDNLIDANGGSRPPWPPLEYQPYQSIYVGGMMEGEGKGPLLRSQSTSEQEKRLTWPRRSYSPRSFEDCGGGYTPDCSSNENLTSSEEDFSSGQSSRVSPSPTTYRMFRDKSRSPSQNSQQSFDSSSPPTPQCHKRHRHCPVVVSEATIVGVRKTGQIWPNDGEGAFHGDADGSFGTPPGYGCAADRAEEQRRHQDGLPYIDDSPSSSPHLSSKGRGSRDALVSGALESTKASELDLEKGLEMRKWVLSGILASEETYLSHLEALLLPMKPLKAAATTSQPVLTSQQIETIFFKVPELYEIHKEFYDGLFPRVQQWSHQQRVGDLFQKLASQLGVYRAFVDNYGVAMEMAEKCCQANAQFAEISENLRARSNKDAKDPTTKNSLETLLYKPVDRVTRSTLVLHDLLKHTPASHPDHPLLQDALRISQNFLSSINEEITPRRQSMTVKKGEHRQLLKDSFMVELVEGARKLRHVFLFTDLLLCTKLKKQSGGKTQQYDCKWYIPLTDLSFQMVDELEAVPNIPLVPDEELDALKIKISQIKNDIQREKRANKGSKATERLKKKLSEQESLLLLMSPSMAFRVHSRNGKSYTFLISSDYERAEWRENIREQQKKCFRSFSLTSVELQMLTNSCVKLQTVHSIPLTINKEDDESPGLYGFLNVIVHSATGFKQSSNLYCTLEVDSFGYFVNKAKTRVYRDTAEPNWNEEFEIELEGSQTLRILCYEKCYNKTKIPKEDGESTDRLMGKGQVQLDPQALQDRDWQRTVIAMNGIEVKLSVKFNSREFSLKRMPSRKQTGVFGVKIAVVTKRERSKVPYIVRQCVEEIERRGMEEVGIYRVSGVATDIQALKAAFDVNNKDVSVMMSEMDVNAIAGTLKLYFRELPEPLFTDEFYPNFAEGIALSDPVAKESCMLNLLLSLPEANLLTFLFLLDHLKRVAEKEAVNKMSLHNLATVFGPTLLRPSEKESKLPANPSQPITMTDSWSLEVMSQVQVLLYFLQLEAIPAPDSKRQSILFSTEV

[7] = biological target: Serine/threonine-protein kinase 10 (Homo sapiens, UniProt O94804)
Serine/threonine-protein kinase 10, sequence (O94804 whole entry): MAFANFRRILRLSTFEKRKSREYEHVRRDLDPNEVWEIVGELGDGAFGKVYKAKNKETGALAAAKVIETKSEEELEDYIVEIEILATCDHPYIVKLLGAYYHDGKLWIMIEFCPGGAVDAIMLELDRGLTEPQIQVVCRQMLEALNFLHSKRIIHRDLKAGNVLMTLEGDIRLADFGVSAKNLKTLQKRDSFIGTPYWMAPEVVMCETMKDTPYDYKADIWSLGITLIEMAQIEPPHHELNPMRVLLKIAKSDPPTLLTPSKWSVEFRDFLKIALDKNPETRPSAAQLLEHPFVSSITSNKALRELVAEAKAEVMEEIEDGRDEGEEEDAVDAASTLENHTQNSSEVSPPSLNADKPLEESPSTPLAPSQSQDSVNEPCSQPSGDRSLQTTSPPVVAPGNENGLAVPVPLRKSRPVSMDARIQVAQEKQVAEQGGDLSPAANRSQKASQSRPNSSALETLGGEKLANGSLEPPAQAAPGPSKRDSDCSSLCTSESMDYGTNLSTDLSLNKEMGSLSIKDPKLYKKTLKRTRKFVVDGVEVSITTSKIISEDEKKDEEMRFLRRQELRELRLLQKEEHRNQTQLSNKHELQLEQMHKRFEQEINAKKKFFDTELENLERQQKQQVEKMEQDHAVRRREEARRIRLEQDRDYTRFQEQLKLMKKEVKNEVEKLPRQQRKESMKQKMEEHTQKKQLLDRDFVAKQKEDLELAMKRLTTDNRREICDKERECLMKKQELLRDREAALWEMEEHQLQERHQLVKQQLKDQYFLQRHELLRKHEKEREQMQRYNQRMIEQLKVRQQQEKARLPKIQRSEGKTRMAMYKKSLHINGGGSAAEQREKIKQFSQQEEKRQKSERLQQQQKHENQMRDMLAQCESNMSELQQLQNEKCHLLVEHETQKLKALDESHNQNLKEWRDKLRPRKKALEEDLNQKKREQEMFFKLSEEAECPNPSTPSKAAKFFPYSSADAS

[8] = biological target: TRAF2 and NCK-interacting protein kinase (Homo sapiens, UniProt Q9UKE5)
TRAF2 and NCK-interacting protein kinase, sequence (Q9UKE5 whole entry): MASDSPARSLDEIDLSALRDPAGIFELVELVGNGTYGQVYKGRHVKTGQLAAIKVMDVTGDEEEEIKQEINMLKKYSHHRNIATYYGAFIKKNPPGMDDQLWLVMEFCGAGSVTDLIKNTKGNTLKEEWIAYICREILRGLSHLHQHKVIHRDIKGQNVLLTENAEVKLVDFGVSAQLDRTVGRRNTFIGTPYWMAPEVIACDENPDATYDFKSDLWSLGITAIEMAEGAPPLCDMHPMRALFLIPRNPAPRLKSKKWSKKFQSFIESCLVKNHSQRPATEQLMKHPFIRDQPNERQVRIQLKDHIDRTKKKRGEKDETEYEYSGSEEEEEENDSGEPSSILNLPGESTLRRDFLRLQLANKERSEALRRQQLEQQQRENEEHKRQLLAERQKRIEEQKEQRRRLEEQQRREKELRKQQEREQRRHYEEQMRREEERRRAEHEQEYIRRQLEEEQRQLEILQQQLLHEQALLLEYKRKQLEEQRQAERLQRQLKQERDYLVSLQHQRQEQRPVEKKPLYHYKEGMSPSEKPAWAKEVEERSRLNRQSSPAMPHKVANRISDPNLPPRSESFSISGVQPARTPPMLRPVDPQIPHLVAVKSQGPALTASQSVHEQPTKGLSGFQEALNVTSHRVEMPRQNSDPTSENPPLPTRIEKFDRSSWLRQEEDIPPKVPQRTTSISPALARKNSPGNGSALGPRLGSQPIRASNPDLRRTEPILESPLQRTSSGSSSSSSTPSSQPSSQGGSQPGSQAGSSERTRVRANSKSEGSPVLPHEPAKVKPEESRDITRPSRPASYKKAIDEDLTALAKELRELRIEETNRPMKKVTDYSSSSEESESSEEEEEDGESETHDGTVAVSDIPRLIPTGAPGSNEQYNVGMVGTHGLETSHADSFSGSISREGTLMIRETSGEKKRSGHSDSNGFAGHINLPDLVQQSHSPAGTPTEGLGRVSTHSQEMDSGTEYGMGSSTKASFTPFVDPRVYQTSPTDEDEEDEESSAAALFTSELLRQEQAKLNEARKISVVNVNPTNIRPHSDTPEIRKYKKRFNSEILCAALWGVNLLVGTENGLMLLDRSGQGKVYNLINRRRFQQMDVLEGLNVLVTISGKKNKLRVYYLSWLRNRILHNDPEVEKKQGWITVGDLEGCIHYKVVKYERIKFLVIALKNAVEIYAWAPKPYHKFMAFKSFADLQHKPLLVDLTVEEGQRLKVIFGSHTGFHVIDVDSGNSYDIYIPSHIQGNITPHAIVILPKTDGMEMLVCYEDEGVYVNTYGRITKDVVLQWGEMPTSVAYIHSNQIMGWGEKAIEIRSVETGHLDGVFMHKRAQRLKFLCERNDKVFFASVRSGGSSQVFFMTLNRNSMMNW

[9] = biological target: Ribosomal protein S6 kinase alpha-3 (Homo sapiens, UniProt P51812)
Ribosomal protein S6 kinase alpha-3, sequence (P51812 whole entry): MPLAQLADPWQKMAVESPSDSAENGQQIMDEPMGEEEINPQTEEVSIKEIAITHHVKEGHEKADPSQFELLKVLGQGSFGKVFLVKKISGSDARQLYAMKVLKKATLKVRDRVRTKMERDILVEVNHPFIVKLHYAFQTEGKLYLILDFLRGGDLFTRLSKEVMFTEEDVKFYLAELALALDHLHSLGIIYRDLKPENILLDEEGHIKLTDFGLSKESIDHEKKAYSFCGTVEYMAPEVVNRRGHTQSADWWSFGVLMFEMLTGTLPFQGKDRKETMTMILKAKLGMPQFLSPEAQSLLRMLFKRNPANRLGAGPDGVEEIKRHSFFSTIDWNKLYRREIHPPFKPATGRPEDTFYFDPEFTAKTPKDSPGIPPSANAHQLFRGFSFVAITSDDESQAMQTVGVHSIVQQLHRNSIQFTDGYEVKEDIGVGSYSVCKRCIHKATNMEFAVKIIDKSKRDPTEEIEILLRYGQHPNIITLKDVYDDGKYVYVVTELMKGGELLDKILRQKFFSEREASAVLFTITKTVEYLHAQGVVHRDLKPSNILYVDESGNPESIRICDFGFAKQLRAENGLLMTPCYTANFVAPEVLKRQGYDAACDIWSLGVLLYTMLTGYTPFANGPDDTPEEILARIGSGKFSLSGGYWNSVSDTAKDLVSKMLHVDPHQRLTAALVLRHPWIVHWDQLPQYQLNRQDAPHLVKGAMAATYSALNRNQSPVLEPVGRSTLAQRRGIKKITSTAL

[10] = biological target: T2, Very long-chain specific acyl-CoA dehydrogenase, mitochondrial (Homo sapiens, UniProt P49748)
T2 sequence (P49748 whole entry): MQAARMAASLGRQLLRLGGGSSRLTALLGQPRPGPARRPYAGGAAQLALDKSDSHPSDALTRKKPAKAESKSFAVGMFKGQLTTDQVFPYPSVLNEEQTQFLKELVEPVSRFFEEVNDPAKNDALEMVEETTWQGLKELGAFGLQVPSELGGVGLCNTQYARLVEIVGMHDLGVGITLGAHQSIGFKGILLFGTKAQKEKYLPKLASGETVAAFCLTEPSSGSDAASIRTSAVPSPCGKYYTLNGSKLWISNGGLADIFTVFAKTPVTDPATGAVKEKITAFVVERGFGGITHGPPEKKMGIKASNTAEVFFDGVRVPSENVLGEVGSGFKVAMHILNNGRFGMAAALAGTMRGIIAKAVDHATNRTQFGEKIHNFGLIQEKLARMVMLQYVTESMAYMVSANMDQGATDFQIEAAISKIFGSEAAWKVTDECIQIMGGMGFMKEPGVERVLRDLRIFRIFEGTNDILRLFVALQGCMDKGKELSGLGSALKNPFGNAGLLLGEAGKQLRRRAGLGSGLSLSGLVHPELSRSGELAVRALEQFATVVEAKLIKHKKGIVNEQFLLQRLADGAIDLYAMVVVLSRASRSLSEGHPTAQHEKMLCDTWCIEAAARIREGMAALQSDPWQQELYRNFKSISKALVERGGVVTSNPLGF
Also: in the data inactive means no Kd found up to 30 µM.

RAC-gamma serine/threonine-protein kinase, sequence (Q9Y243 whole entry): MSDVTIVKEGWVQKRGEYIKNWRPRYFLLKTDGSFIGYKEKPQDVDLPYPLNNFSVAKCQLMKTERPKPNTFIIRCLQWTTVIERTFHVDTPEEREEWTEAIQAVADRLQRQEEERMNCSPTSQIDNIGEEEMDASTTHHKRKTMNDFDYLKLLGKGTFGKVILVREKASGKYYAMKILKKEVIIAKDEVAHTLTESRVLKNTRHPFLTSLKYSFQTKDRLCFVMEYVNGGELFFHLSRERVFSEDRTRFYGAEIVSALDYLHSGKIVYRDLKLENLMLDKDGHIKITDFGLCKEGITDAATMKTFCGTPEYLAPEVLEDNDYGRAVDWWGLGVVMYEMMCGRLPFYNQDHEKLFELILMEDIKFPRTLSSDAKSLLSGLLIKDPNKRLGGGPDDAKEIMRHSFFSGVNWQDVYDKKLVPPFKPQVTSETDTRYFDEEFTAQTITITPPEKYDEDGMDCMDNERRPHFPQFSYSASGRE

Kd [1]	Kd [2]	Kd [3]	Kd [4]	Kd [5]	Kd [6]	Kd [7]	Kd [8]	Kd [9]	Kd [10]	Structure (SMILES)
> 30 µM (inactive)	> 30 µM (inactive)	> 30 µM (inactive)	> 30 µM (inactive)	0.174 µM (active)	> 30 µM (inactive)	> 30 µM (inactive)	> 30 µM (inactive)	> 30 µM (inactive)	> 30 µM (inactive)	Cc1ccc(C(=O)Nc2ccc(Oc3cc4cnn(C)c4cc3-c3cn[nH]c3)c(F)c2)c(=O)n1-c1ccc(F)cc1 [MERESTINIB]
> 30 µM (inactive)	> 30 µM (inactive)	> 30 µM (inactive)	> 30 µM (inactive)	> 30 µM (inactive)	> 30 µM (inactive)	> 30 µM (inactive)	> 30 µM (inactive)	> 30 µM (inactive)	> 30 µM (inactive)	O=C(NOC[C@H](O)CO)c1ccc(F)c(F)c1Nc1ccc(I)cc1F [MIRDAMETINIB]
> 30 µM (inactive)	> 30 µM (inactive)	> 30 µM (inactive)	> 30 µM (inactive)	> 30 µM (inactive)	> 30 µM (inactive)	> 30 µM (inactive)	> 30 µM (inactive)	> 30 µM (inactive)	> 30 µM (inactive)	O=C(Nc1ccc(OC(F)(F)F)cc1)c1sccc1NCc1ccnc2ccccc12 [OSI-930]
> 30 µM (inactive)	> 30 µM (inactive)	> 30 µM (inactive)	> 30 µM (inactive)	> 30 µM (inactive)	> 30 µM (inactive)	> 30 µM (inactive)	> 30 µM (inactive)	> 30 µM (inactive)	> 30 µM (inactive)	FC(F)(F)c1ccc(CNc2ccc(Cc3c[nH]c4ncc(Cl)cc34)cn2)cn1 [PEXIDARTINIB]
> 30 µM (inactive)	> 30 µM (inactive)	> 30 µM (inactive)	> 30 µM (inactive)	> 30 µM (inactive)	> 30 µM (inactive)	> 30 µM (inactive)	> 30 µM (inactive)	> 30 µM (inactive)	> 30 µM (inactive)	O=C(NC[C@H](O)CO)c1ccncc1Nc1ccc(I)cc1F [PIMASERTIB]
> 30 µM (inactive)	> 30 µM (inactive)	> 30 µM (inactive)	> 30 µM (inactive)	> 30 µM (inactive)	> 30 µM (inactive)	0.096 µM (active)	> 30 µM (inactive)	> 30 µM (inactive)	> 30 µM (inactive)	O=C(O)c1ccc2c(c1)nc(Nc1cccc(Cl)c1)c1ccncc12 [SILMITASERTIB]

The next lines start with the molecule.

Structure (SMILES)	Kd [1]	Kd [2]	Kd [3]	Kd [4]	Kd [5]	Kd [6]	Kd [7]	Kd [8]	Kd [9]	Kd [10]
Cc1c(Cn2c(C)nc3c(C(=O)O)cc(N4CCOCC4)cc32)cccc1C(F)(F)F [GSK-2636771]	> 30 µM (inactive)	> 30 µM (inactive)	> 30 µM (inactive)	> 30 µM (inactive)	> 30 µM (inactive)	> 30 µM (inactive)	> 30 µM (inactive)	> 30 µM (inactive)	> 30 µM (inactive)	> 30 µM (inactive)
O=S(=O)(c1cccc2c(O)nccc12)N1CCCNCC1 [HYDROXYFASUDIL]	> 30 µM (inactive)	> 30 µM (inactive)	> 30 µM (inactive)	> 30 µM (inactive)	> 30 µM (inactive)	> 30 µM (inactive)	> 30 µM (inactive)	> 30 µM (inactive)	> 30 µM (inactive)	> 30 µM (inactive)
C#Cc1cccc(Nc2ncnc3cc4c(cc23)OCCOCCOCCO4)c1 [ICOTINIB]	> 30 µM (inactive)	> 30 µM (inactive)	> 30 µM (inactive)	> 30 µM (inactive)	> 30 µM (inactive)	> 30 µM (inactive)	0.227 µM (active)	> 30 µM (inactive)	> 30 µM (inactive)	> 30 µM (inactive)
COc1cc2ncnc3c2cc1OCCCCCN(C)Cc1ccc(Br)cc1N3 [JNJ-26483327]	> 30 µM (inactive)	0.006 µM	> 30 µM (inactive)	> 30 µM (inactive)	> 30 µM (inactive)	> 30 µM (inactive)	45.1 µM (active)	> 30 µM (inactive)	> 30 µM (inactive)	> 30 µM (inactive)
COc1cccc2cc(-c3nc([C@H]4CC[C@H](C(=O)O)CC4)n4ncnc(N)c34)[nH]c12 [OSI-027]	> 30 µM (inactive)	> 30 µM (inactive)	> 30 µM (inactive)	> 30 µM (inactive)	> 30 µM (inactive)	> 30 µM (inactive)	> 30 µM (inactive)	> 30 µM (inactive)	> 30 µM (inactive)	> 30 µM (inactive)
C=CC(=O)Nc1cc(Nc2nccc(-c3cn(C)c4ccccc34)n2)c(OC)cc1N(C)CCN(C)C [OSIMERTINIB]	> 30 µM (inactive)	> 30 µM (inactive)	> 30 µM (inactive)	> 30 µM (inactive)	> 30 µM (inactive)	> 30 µM (inactive)	> 30 µM (inactive)	> 30 µM (inactive)	> 30 µM (inactive)	> 30 µM (inactive)
COc1cc(F)c(F)c(Nc2ccc(I)cc2F)c1NS(=O)(=O)C1(C[C@H](O)CO)CC1 [REFAMETINIB]	> 30 µM (inactive)	> 30 µM (inactive)	> 30 µM (inactive)	> 30 µM (inactive)	> 30 µM (inactive)	> 30 µM (inactive)	> 30 µM (inactive)	> 30 µM (inactive)	> 30 µM (inactive)	> 30 µM (inactive)
COCCN1CCN(Cc2ccc(-c3n[nH]c4c3C(=O)c3c(NC(=O)NN5CCOCC5)cccc3-4)cc2)CC1 [RGB-286638]	> 30 µM (inactive)	> 30 µM (inactive)	> 30 µM (inactive)	> 30 µM (inactive)	> 30 µM (inactive)	1.24 µM (active)	> 30 µM (inactive)	> 30 µM (inactive)	> 30 µM (inactive)	> 30 µM (inactive)
C=CCN(/C=C1/C(=O)O[C@H](COC)[C@@]2(C)C1=C(O)C(=O)C1=C2[C@H](OC(C)=O)C[C@]2(C)C(=O)CC[C@@H]12)CC=C [SONOLISIB]	> 30 µM (inactive)	> 30 µM (inactive)	> 30 µM (inactive)	> 30 µM (inactive)	> 30 µM (inactive)	> 30 µM (inactive)	> 30 µM (inactive)	> 30 µM (inactive)	> 30 µM (inactive)	> 30 µM (inactive)
CN1CCN(c2nc(C3=C(c4c[nH]c5ccccc45)C(=O)NC3=O)c3ccccc3n2)CC1 [SOTRASTAURIN]	> 30 µM (inactive)	> 30 µM (inactive)	> 30 µM (inactive)	> 30 µM (inactive)	> 30 µM (inactive)	> 30 µM (inactive)	> 30 µM (inactive)	0.038 µM	> 30 µM (inactive)	> 30 µM (inactive)
